Article PMC11915509, “Small molecule inhibitors of hnRNPA2B1–RNA interactions reveal a predictable sorting of RNA subsets into extracellular vesicles” (Nucleic Acids Research, 2025)
Several values for one entry are separate records, joined by “and”; a condition that tells them apart may be missing. Equal entries are not always repeated.

How the values were obtained:
[1] = test system: hnRNPA2B1 and TDP43 bound RNA (miR-221, miR-1910); assay: RNA immunoprecipitation (RIP) on cytoplasmic lysates of treated NSC34 cells; format: cell-based, mouse; details: 6 h treatment, anti-hnRNPA2B1 and anti-TDP43 RIP
Method: Flow cytometry of a fraction of RNA immunoprecipitation (RIP) experiments, consisting of RNA/protein-antibody-bead complexes, was performed on the same instrument using a sequential gating with Streptavidin beads alone ± antibodies (this signal corresponded to background). Pyronin Y (PY) was used at a final concentration of 50 ng/ml and the PY-positive events recorded for 1 min.
Approximately 2 × 10^6 cells were used for each RIP experiment, performed as already described, without cross-linking steps and using 0.5 μg/ml of antibodies. Beads-precipitated samples were divided for immunoblotting or TRIzol-based RNA isolation. Densitometric analysis obtained using Image J software (v.1.54). miRNA TaqMan probes were bought from Thermo Fisher with the following codes: miR-221 (477 981), miR-1910 (479 581), and miR-126 (4 427 975).

NF-kB = NF-kB luciferase reporter in EV-recipient HEK293T cells; format: cell-based, human; details: EVs from hnRNPA2B1 OE HEK293T donor cells treated 5 μM 6 h; recipient cells 8 h
Excerpt: To obtain some preliminary information on the bioactivity of identified compounds in relation to EV function, we explored the potential activation NF-kB in EV-recipient cells as a readout. […] We, therefore, used HEK293T cells as EV-recipient cells upon transfecting them with an NF-kB-responsive promoter activating the luciferase reporter. To work with an experimental set up considering the post-transcriptional effects on the readout, we evaluated if the expression of the recombinant hnRNPA2B1 could induce secretion of EVs capable of activating NF-kB if further exposed to autologous cells. […] We, therefore, exploited this system to test compounds including some indication on the relevance of the EV-RNA cargo in mediating the luciferase activation in recipient cells. […] Next, we washed with PBS and incubated cells with serum-free media for additional 24 h to recover EVs. We exposed these EVs for 8 h to HEK293T cells previously seeded in 96-well plate and transfected with the luciferase reporter plasmid for 24 h. […]
Paracrine effect on NF-kB activation of EVs deriving from RBP-conditioned and treated cells. […] Firefly luminescence was normalized on cellular protein content at the end point on the corresponding sample. […]

EXO-motif RNA probe = assay: Absorbance scan of compounds mixed with EXO-motif RNA; format: binding; details: EXO-motif probe, 1:5 micromolar ratio with compound, room temperature
Method: (§1) Five μM RNA EXO motif were mixed with 25 μM compounds in AlphaBuffer (25 mM HEPES, pH 7.4, 100 mM NaCl, 0.01% BSA) to a final volume of 20 μl. Absorbance spectrum (200–530 nm) was measured using Tecan Spark® microplate reader with a NanoQuant plate at room temperature. In fluorescence indicator displacement (FID), a 2× final concentration of Midori green advanced (Resnova) was added to the samples and the melting curve measured using Bio-Rad CFX96™ System from 30°C to 90°C.

HEK293T cells = assay: Cell viability dose response, HEK293T; format: cell-based, human; details: 24 hr
Method: (§2) Supplementary Figure S6. Cell viability upon treatment with Hematein. Cells were exposed to increasing concentrations of Hematein or DMSO (control vehicle) for 24 hr under standard growth conditions. […] In both cases a range of drug tolerance was observed before the drop of viability over 10 µM. The graph indicates mean and SD of two independent experiments.

EXO-motif RNA = assay: Fluorescence indicator displacement (FID) melting curve, EXO-motif RNA; format: binding; details: 5 μM RNA, 25 μM compound, Midori green
Method: as §1

[2] = target: T1, hnRNPA2B1-EXOmotif interaction (Homo sapiens, UniProt P22626); assay: AlphaScreen dose-response, inhibition of hnRNPA2B1-EXOmotif RNA interaction; format: binding; details: AlphaScreen dose-response with RNA EXOmotif, one site fitting
T1 construct: purified a human full-length, GST-tagged protein expressed in Escherichia coli cells; made in house; host or cells: E. coli BL21 (DE3)
T1 sequence (P22626 whole entry): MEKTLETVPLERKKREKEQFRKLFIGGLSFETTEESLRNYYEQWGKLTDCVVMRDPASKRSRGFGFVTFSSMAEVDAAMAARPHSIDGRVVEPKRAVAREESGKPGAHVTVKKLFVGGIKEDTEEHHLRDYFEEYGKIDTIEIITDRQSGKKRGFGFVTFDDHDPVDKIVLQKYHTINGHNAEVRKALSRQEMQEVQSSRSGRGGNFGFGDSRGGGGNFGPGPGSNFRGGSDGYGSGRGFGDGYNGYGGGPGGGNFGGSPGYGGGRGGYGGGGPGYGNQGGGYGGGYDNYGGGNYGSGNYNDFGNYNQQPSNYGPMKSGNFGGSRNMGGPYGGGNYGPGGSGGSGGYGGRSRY
Method: The assays were performed in OptiPlate-384-well plates (PerkinElmer, 6007299) in 20 μl final volume. The ligands were diluted in AlphaBuffer [25 mM HEPES, pH 7.4, 100 mM NaCl, 0.01% bovine serum albumin (BSA)] and tested using AlphaScreen GST Detection Kit (PerkinElmer, 6760603C). […] For the reactions, 4 μl of the RNA probes were first added to the plate, then 16 μl of a mix containing all the other components was added, and the plate was incubated at room temperature for 1 h in the dark.
The high-throughput drug screening was performed in a total volume of 20 μl using 17 nM of RNA EXO motif (chosen below the hooking point), 30 nM GST-hnRNPA2B1, and 250 nM of compounds belonging to mass spectrometry (MS) Spectrum Collection library (MicroSource, 2000 compounds). Compounds were dispensed into white 384-well Optiplates (PerkinElmer) using Echo 650 acoustic dispenser (Beckman Coulter) followed by the addition of protein in Alpha Buffer using the EL460 dispenser (BioTek). After 15 min of incubation, RNA probes were added by Echo 650 acoustic dispenser, while Donor and Acceptor beads from the GST detection kit (Perkin Elmer) were dispensed by EL460 instrument. Following 60 min of incubation, Alpha signal was detected using Enspire plate reader instrument (PerkinElmer). The raw Alpha counts were normalized to Dimethyl sulfoxide (DMSO)-treated controls within every plate.

[3] = target: T2, hnRNPA2B1-RNA 114 probe interaction (Homo sapiens, UniProt P22626); assay: AlphaScreen with RNA 114 probe and compounds; format: binding; details: 250 nM of compounds, 14 nM RNA 114 probe
T2 construct: purified a human full-length, GST-tagged protein expressed in Escherichia coli cells; made in house; host or cells: E. coli BL21 (DE3)
T2 sequence (P22626 whole entry): as above
Method: The assays were performed in OptiPlate-384-well plates (PerkinElmer, 6007299) in 20 μl final volume. The ligands were diluted in AlphaBuffer [25 mM HEPES, pH 7.4, 100 mM NaCl, 0.01% bovine serum albumin (BSA)] and tested using AlphaScreen GST Detection Kit (PerkinElmer, 6760603C). For the assay optimization, different concentrations of the RNA probes (0–100 nM) were incubated with different concentrations of GST-hnRNPA2B1 (0–60 nM) in the presence of streptavidin Donor beads and anti-GST-Acceptor beads (PerkinElmer) (20 μg/ml final concentration). For the reactions, 4 μl of the RNA probes were first added to the plate, then 16 μl of a mix containing all the other components was added, and the plate was incubated at room temperature for 1 h in the dark.

NSC34 cells [4] = assay: Cell viability dose response, NSC34; format: cell-based, mouse; details: NSC34, 24 hr
Method: as §2

NSC34 cells [5] = assay: Nanodrop quantification of total intracellular RNA after treatment; format: cell-based, mouse; details: 6 h treatment
Method: RNA from cells was extracted using TRI Reagent® ([…], Sigma) following the manufacturer's instructions. Thermo Fisher Nanodrop 2000 Spectrophotometer was used to assess the purity and quantity of extracted RNA. RNA from EVs was extracted using Single Cell RNA Isolation Kit (51800, Norgen) following the manufacturer's protocol. The elution was in 10-20 μl of RNase-free water and the RNA profiling and quantification was assessed by Agilent 2100 Bioanalyzer and RNA 6000 Pico Kit (5067-1513). Cell- and EV-RNAs were also analysed with DNF-472 HS RNA (15 nt) Kit (Agilent Technologies, Santa Clara, CA), according to the manufacturer. Briefly, 2 μl of RNA samples concentrated within a range of 50-5000 pg/μl and RNA Ladder were added to Diluent Marker, denatured at 70°C for 2 min and loaded. Results were analysed with Agilent ProSize data analysis software, that allows the analysis of RNA size, concentration and quality. Through a Peak Analysis it was possible to access the concentration of each peak recognized by the software. Half a nanogram of extracted RNA from cells and EVs was used as input for complementary DNA (cDNA) synthesis. cDNA was produced using TaqManTM Advanced miRNA cDNA Synthesis Kit (Applied BiosystemsTM, A28007) following manufacturers' instructions and used for droplet digital polymerase chain reaction (PCR) experiments.

thermal shift of the EXO-motif RNA (EXO-motif RNA): 9.5 °C | IC50 [2]: ~0.1 µM and 0.0999 µM | interference with RNA 114 probe interaction [3]: most effective inhibitors
Compound: O=C1C=C2CC3(O)COc4c(ccc(O)c4O)C3=C2C=C1O (centres unmarked) [H, hematein]
percentage of bound targets (miR-221, miR-1910) [1]: significantly reduced | EV-mediated, hnRNPA2B1-induced NF-kB activation (NF-kB): significantly counteracted | absorbance shifts, 300-400 nm (EXO-motif RNA probe): absorbance shifts | concentration of drop of viability (HEK293T cells): over 10 µM | IC50 (HEK293T cells; Homo sapiens, HEK-293T): ~41 µM | IC50 (NSC34 cells [4]; Mus musculus, NSC-34): ~78 µM | concentration of drop of viability (NSC34 cells [4]): over 10 µM | accumulation of intracellular RNAs (NSC34 cells [5]): significantly higher
